The target of this experiment is T1, hCRTH2 receptor (Homo sapiens, UniProt Q9Y5Y4).
T1 construct: expressed in transfected cells; host or cells: HEK293
T1 sequence (Q9Y5Y4 1-395): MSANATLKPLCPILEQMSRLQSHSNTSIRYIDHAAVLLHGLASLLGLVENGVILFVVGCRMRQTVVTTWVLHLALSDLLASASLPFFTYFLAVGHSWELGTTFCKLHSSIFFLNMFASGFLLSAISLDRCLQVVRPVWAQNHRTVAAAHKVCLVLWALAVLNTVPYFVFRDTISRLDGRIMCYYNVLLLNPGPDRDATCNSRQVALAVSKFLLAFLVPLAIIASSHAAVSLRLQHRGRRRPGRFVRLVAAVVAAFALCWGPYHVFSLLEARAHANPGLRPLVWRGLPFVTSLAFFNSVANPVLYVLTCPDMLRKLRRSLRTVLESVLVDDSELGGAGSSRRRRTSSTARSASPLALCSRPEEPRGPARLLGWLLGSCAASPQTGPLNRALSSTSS
The experiment can be described thus: Radioligand displacement assay (3H-PGD2) on hCRTH2 receptor membranes. The class given is binding. To be noted: antagonistic activity; 3H-PGD2 displacement on HEK293-hCRTH2 membrane fragments. A general note: In a radioligand displacement assay an active substance lowers the binding of a labelled ligand.
By IC50 is commonly meant the point on the concentration scale where inhibition reaches its midpoint. For the molecule `O=C(O)COc1ccc(F)cc1C1c2ccccc2CCN1C(=O)COc1ccccc1F` (racemic) [Example 148, (±)-(4-Fluoro-2-{2-[2-(2-fluoro-phenoxy)-acetyl]-1,2,3,4-tetrahydro-isoquinolin-1-yl}-phenoxy)-acetic acid], the IC50 worked out at 132 nM.
Then `COc1ccccc1CCCC(=O)N1CCc2ccccc2C1c1cc(F)ccc1OCC(=O)O` (racemic) [Example 149, (±)-(4-Fluoro-2-{2-[4-(2-methoxy-phenyl)-butyryl]-1,2,3,4-tetrahydro-isoquinolin-1-yl}-phenoxy)-acetic acid], with 42.7 nM.
Turning to `O=C(O)COc1ccc(F)cc1C1c2ccccc2CCN1C(=O)COCc1ccccc1Cl` (racemic) [Example 150], the IC50 was determined as 6.16 nM.
The result for `O=C(O)COc1ccc(Cl)cc1C1c2ccccc2CCN1C(=O)[C@@H]1C[C@H]1c1ccc(Cl)cc1` (mixture of isomers) [Example 157] reads 45.3 nM; that for `O=C(O)COc1ccc(Cl)cc1C1c2ccccc2CCN1C(=O)[C@@H]1C[C@H]1c1ccc(Cl)cc1Cl` (mixture of isomers) [Example 158], 37.6 nM; that for `COc1ccccc1[C@@H]1C[C@H]1C(=O)N1CCc2ccccc2C1c1cc(Cl)ccc1OCC(=O)O` (mixture of isomers) [Example 159], 21.2 nM.
The result for `O=C(O)COc1ccc(Cl)cc1C1c2ccccc2CCN1C(=O)[C@@H]1C[C@H]1c1ccccc1F` (mixture of isomers) [Example 160] reads 16.4 nM; that for `O=C(O)COc1ccc(Cl)cc1C1c2ccccc2CCN1C(=O)CCc1cnnn1-c1ccccc1` (racemic) [Example 161], 116 nM; that for `O=C(O)COc1ccc(Cl)cc1C1c2ccccc2CCN1C(=O)CSc1cnnn1-c1ccccc1` (racemic) [Example 162], 115 nM.
The result for `O=C(O)COc1ccc(F)cc1C1c2ccc(F)cc2CCN1C(=O)OCc1ccccc1` (racemic) [Example 163] reads 4.21 nM.
Turning to `O=C(O)COc1ccc(Cl)cc1C1c2ccccc2CCN1C(=O)OCc1ccccc1Cl` (racemic) [Example 164], the IC50 amounted to 0.94 nM.
The result for `O=C(O)COc1ccc(F)cc1C1c2ccccc2CCN1C(=O)OCc1ccccc1Cl` (racemic) [Example 165] reads 5 nM.
Then `CC(C)(C)COC(=O)N1CCc2ccccc2C1c1cc(F)ccc1OCC(=O)O` (racemic) [Example 166], with 120 nM; and `CCCCOC(=O)N1CCc2ccccc2C1c1cc(F)ccc1OCC(=O)O` (racemic) [Example 167], with 42 nM.
Regarding `COc1ccccc1OC(=O)N1CCc2ccccc2C1c1cc(F)ccc1OCC(=O)O` (racemic) [Example 168], the IC50 turned out to be 109 nM.
Then `O=C(O)COc1ccc(F)cc1C1c2ccccc2CCN1C(=O)Oc1ccccc1` (racemic) [Example 169], with 451 nM; and `O=C(O)COc1ccc(F)cc1C1c2ccccc2CCN1C(=O)Oc1ccccc1Cl` (racemic) [Example 170], with 169 nM.
Then `CC(C)COC(=O)N1CCc2ccccc2C1c1cc(F)ccc1OCC(=O)O` (racemic) [Example 171], with 47.7 nM.
Then `COCCOC(=O)N1CCc2ccccc2C1c1cc(F)ccc1OCC(=O)O` (racemic) [Example 172], with 59.8 nM; and `COc1ccc(OC(=O)N2CCc3ccccc3C2c2cc(F)ccc2OCC(=O)O)cc1` (racemic) [Example 173], with 102 nM.
As to `O=C(O)COc1ccc(Cl)cc1C1c2cccc(F)c2CCN1C(=O)OCc1ccccc1Cl` (racemic) [Example 175], the IC50 turned out to be 8.75 nM.
The result for `O=C(O)COc1ccc(Cl)cc1C1c2ccccc2CCN1C(=O)OCCc1ccccc1Cl` (racemic) [Example 176, (±)-1-(2-Carboxymethoxy-5-chloro-phenyl)-3,4-dihydro-1H-isoquinoline-2-carboxylic acid 2-(2-chloro-phenyl)-ethyl ester] reads 10.4 nM; that for `O=C(O)COc1ccc(F)cc1C1c2ccccc2CCN1C(=O)OCCc1ccccc1Cl` (racemic) [Example 177, (±)-1-(2-Carboxymethoxy-5-fluoro-phenyl)-3,4-dihydro-1H-isoquinoline-2-carboxylic acid 2-(2-chloro-phenyl)-ethyl ester], 27.5 nM; that for `O=C(O)COc1ccc(F)cc1C1c2ccccc2CCN1C(=O)Oc1cccc(Cl)c1` (racemic) [Example 178, (±)-1-(2-Carboxymethoxy-5-fluoro-phenyl)-3,4-dihydro-1H-isoquinoline-2-carboxylic acid 3-chloro-phenyl ester], 687 nM.
Then `O=C(O)COc1ccc(Cl)cc1C1c2cccc(F)c2CCN1C(=O)OCCc1ccccc1Cl` (racemic) [Example 179, (±)-1-(2-Carboxymethoxy-5-chloro-phenyl)-5-fluoro-3,4-dihydro-1H-isoquinoline-2-carboxylic acid 2-(2-chloro-phenyl)-ethyl ester], with 39.5 nM; and `CC1(C)CN(C(=O)OCc2ccccc2)C(c2cc(Cl)ccc2OCC(=O)O)c2ccccc21` (racemic) [Example 180, (±)-1-(2-Carboxymethoxy-5-chloro-phenyl)-4,4-dimethyl-3,4-dihydro-1H-isoquinoline-2-carboxylic acid benzyl ester], with 151 nM.
Regarding `CCS(=O)(=O)c1ccc2c(c1)C(c1cc(F)ccc1OCC(=O)O)N(C(=O)OCc1ccccc1)CC2` (racemic) [Example 181], the IC50 was 572 nM.
Consider `CS(=O)(=O)c1ccc(OCC(=O)O)c(C2c3ccccc3CCN2C(=O)OCc2ccccc2)c1` (racemic) [Example 182], for which the IC50 turned out to be 308 nM.
Then `O=C(O)COc1ccc(S(=O)(=O)c2ccccc2)cc1C1c2ccccc2CCN1C(=O)OCc1ccccc1` (racemic) [Example 183], with 64 nM.
The result for `CCS(=O)(=O)c1ccc(OCC(=O)O)c(C2c3ccccc3CCN2C(=O)OCc2ccccc2)c1` (racemic) [Example 184] reads 346 nM; that for `CS(=O)(=O)c1cccc2c1CCN(C(=O)OCc1ccccc1)C2c1cc(F)ccc1OCC(=O)O` (racemic) [Example 185], 78.7 nM; that for `CCS(=O)(=O)c1cccc2c1CCN(C(=O)OCc1ccccc1)C2c1cc(F)ccc1OCC(=O)O` (racemic) [Example 186], 311 nM.
Then `O=C(O)COc1ccc(F)cc1C1c2cccc(S(=O)(=O)c3ccccc3)c2CCN1C(=O)OCc1ccccc1` (racemic) [Example 187], with 241 nM; and `O=C(O)COc1ccc(-c2cncnc2)cc1C1c2ccccc2CCN1C(=O)OCc1ccccc1` (racemic) [Example 188, (±)-1-(2-Carboxymethoxy-5-pyrimidin-5-yl-phenyl)-3,4-dihydro-1H-isoquinoline-2-carboxylic acid benzyl ester], with 89.4 nM.
On to `O=C(O)COc1ccc(-c2ccc(F)cc2)cc1C1c2ccccc2CCN1C(=O)OCc1ccccc1` (racemic) [Example 189, (±)-1-(4-Carboxymethoxy-4′-fluoro-biphenyl-3-yl)-3,4-dihydro-1H-isoquinoline-2-carboxylic acid benzyl ester], for which the IC50 was determined as 23.3 nM.
Consider `O=C(O)COc1ccc(F)cc1C1c2ccccc2CCN1C(=O)COCc1cccc(Cl)c1` (racemic) [Example 190], for which the IC50 came to 16.9 nM.
Then `O=C(O)COc1ccc(F)cc1C1c2ccccc2CCN1C(=O)COCc1ccc(Cl)cc1` (racemic) [Example 191], with 33.3 nM; and `Cc1ccccc1COCC(=O)N1CCc2ccccc2C1c1cc(F)ccc1OCC(=O)O` (racemic) [Example 192], with 11.1 nM.
The result for `Cc1cccc(COCC(=O)N2CCc3ccccc3C2c2cc(F)ccc2OCC(=O)O)c1` (racemic) [Example 193] reads 27.7 nM; that for `Cc1ccc(COCC(=O)N2CCc3ccccc3C2c2cc(F)ccc2OCC(=O)O)cc1` (racemic) [Example 194], 90.2 nM.
The result for `COc1cccc(COCC(=O)N2CCc3ccccc3C2c2cc(F)ccc2OCC(=O)O)c1` (racemic) [Example 195] reads 36.3 nM; that for `COc1ccc(COCC(=O)N2CCc3ccccc3C2c2cc(F)ccc2OCC(=O)O)cc1` (racemic) [Example 196], 146 nM.
In turn, `Cn1ccc(COCC(=O)N2CCc3ccccc3C2c2cc(F)ccc2OCC(=O)O)n1` (racemic) [Example 197, (±)-(4-Fluoro-2-{2-[2-(1-methyl-1H-pyrazol-3-ylmethoxy)-acetyl]-1,2,3,4-tetrahydro-isoquinolin-1-yl}-phenoxy)-acetic acid] registered an IC50 of 323 nM.
Then `COc1ccccc1COCC(=O)N1CCc2ccccc2C1c1cc(F)ccc1OCC(=O)O` (racemic) [Example 198, (±)-(4-Fluoro-2-{2-[2-(2-methoxy-benzyloxy)-acetyl]-1,2,3,4-tetrahydro-isoquinolin-1-yl}-phenoxy)-acetic acid], with 19 nM.
As for `O=C(O)COc1ccc(F)cc1C1c2ccccc2CCN1C(=O)NCc1ccccc1` (racemic) [Example 199], the concentration for half-maximal inhibition (IC50) is 54 nM.
The molecule `O=C(O)COc1ccc(F)cc1C1c2ccccc2CCN1C(=O)NCCc1ccccc1` (racemic) [Example 200] registered an IC50 of 31 nM.
The molecule `COc1ccccc1CNC(=O)N1CCc2ccccc2C1c1cc(F)ccc1OCC(=O)O` (racemic) [Example 201] gave an IC50 of 21 nM.
Turning to `COc1ccccc1CNC(=O)N1CCc2ccccc2C1c1cc(Cl)ccc1OCC(=O)O` (racemic) [Example 202], the IC50 turned out to be 7.29 nM.
The result for `O=C(O)COc1ccc(F)cc1C1c2ccccc2CCN1C(=O)NCc1ccccc1Cl` (racemic) [Example 203] reads 27.9 nM.

Values taken from US8575158B2, “1-phenyl-substituted heterocyclyl derivatives and their use as prostaglandin D2 receptor modulators” (Actelion Pharmaceuticals Ltd., priority 2010, dated 2013).
